The text below walks through data of US9718828B2 (MERCK SHARP & DOHME CORP., priority 2011, dated 2017).

Structures can show the parent of a compound that is named as a salt.

In one experiment the target is Btk enzyme (His-Btk) (Homo sapiens (Human), UniProt Q06187). Nature of the experiment: Btk enzyme activity, IMAP fluorescence polarization assay (Assay Method A).
Sequence of Btk enzyme (His-Btk) (Q06187 whole entry): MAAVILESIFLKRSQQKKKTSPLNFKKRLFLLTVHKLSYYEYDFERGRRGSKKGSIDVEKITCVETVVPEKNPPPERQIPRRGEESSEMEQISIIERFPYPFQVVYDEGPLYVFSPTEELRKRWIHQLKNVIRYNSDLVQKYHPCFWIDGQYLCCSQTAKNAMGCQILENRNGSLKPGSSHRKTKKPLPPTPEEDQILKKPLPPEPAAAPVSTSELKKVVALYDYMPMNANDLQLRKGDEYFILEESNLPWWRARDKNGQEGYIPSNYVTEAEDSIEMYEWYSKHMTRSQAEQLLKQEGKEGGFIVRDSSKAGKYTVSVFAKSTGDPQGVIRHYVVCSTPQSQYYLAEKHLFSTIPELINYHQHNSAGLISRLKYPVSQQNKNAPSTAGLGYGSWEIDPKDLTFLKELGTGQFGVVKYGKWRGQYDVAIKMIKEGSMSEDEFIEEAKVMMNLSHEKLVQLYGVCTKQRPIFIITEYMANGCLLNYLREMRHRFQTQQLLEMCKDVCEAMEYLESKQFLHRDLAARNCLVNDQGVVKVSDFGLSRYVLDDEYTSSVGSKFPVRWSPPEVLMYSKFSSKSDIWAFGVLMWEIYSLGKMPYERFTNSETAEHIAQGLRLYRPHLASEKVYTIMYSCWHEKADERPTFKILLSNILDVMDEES
Settings: not given
Take `CC(C)CNC(=O)C(=O)N1CCC[C@@H](c2nc(-c3ccc(C(=O)Nc4cc(C5CC5)ccn4)cc3)c3c(N)nccn23)C1` [Example 112, (R)-4-(8-amino-3-(1-(2-(isobutylamino)-2-oxoacetyl)piperidin-3-yl)imidazo[1,5-a]pyrazin-1-yl)-N-(4-cyclopropylpyridin-2-yl)benzamide]: the EC50 was 10 to 100 nM. In turn, `Cc1nc(-c2ccc(C(=O)Nc3cc(C(F)(F)F)ccn3)cc2)c2c(N)ncc(C(=O)NCc3cccnc3)n12` [Example 296, 8-amino-3-methyl-N-(pyridin-3-ylmethyl)-1-(4-(4-(trifluoromethyl)pyridin-2-ylcarbamoyl)phenyl)imidazo[1,5-a]pyrazine-5-carboxamide] showed an EC50 of 100 to 1000 nM.

Turning to `Nc1nccn2c([C@@H]3CCCN(CC4CCCC4)C3)nc(-c3ccc(C(=O)Nc4cc(C5CC5)ccn4)cc3)c12` [Example 143, (R)-4-(8-amino-3-(1-(cyclopentylmethyl)piperidin-3-yl)imidazo[1,5-a]pyrazin-1-yl)-N-(4-cyclopropylpyridin-2-yl)benzamide, TFA salt], the EC50 is 10 to 100 nM.

The compound `COCCC(=O)N1CCC[C@@H](c2nc(-c3ccc(C(=O)Nc4ccccn4)cn3)c3c(N)nccn23)C1` [Example 288, (R)-6-(8-amino-3-(1-(3-methoxypropanoyl)piperidin-3-yl)imidazo[1,5-a]pyrazin-1-yl)-N-(pyridin-2-yl) nicotinamide] had an EC50 of 100 to 1000 nM. Still for that read-out and setting: the value for `CCN1CCC[C@@H](c2nc(-c3ccc(C(=O)Nc4cc(C(F)(F)F)ccn4)cc3)c3c(N)nccn23)C1` [Example 138, (R)-4-(8-amino-3-(1-ethylpiperidin-3-yl)imidazo[1,5-a]pyrazin-1-yl)-N-(4-(trifluoromethyl)pyridin-2-yl)benzamide, TFA salt] was 10 to 100 nM; that for `CC1(C(=O)N2CCC[C@@H](c3nc(-c4ccc(C(=O)Nc5cc(C(F)(F)F)ccn5)cc4)c4c(N)ncnn34)C2)CCC1` [Example 254, (R)-4-(4-amino-7-(1-(1-methylcyclobutanecarbonyl)piperidin-3-yl)imidazo[1,5-f][1,2,4]triazin-5-yl)-N-(4-(trifluoromethyl)pyridin-2-yl)benzamide] was below 10 nM.

For the compound `N#Cc1ccnc(NC(=O)c2ccc(-c3nc(C4CCCC4)n4ccnc(N)c34)cc2)c1` [Example 44, 4-(8-amino-3-cyclopentylimidazo[1,5-a]pyrazin-1-yl)-N-(4-cyanopyridin-2-yl)benzamide, TFA salt], the EC50 is below 10 nM. Same read-out and setting: the value for `Nc1nccn2c([C@@H]3CCCN(C(=O)C4CC(F)(F)C4)C3)nc(-c3ccc(C(=O)Nc4cc(C(F)(F)F)ccn4)cc3)c12` [Example 83, (R)-4-(8-amino-3-(1-(3,3-difluorocyclobutanecarbonyl)piperidin-3-yl)imidazo[1,5-a]pyrazin-1-yl)-N-(4-(trifluoromethyl)pyridin-2-yl)benzamide] was below 10 nM; that for `Nc1ncnn2c([C@@H]3CCCNC3)nc(-c3ccc(C(=O)Nc4cc(C(F)(F)F)ccn4)cc3)c12` [Example 258, (R)-4-(4-amino-7-(piperidin-3-yl)imidazo[1,5-f][1,2,4]triazin-5-yl)-N-(4-(trifluoromethyl)pyridin-2-yl)benzamide] was 10 to 100 nM.

Compound `CC(C)C(=O)N1CCC2(CC1)CC2c1nc(-c2ccc(C(=O)Nc3ccccn3)cc2)c2c(N)nccn12` (stereo not drawn) [Example 150, 4-(8-amino-3-(6-isobutyryl-6-azaspiro[2.5]octan-1-yl)imidazo[1,5-a]pyrazin-1-yl)-N-(pyridin-2-yl) benzamidee] yielded an EC50 of 100 to 1000 nM. Same read-out and setting: the value for `COC1CN(c2nc(-c3ccc(C(=O)Nc4ccccn4)cc3)c3c(N)nccn23)C1` [Example 217, 4-(8-amino-3-(3-methoxyazetidin-1-yl)imidazo[1,5-a]pyrazin-1-yl)-N-(pyridin-2-yl)benzamide] was 100 to 1000 nM. On the same count and under the same terms, the value for `CO[C@@H](C)C(=O)N1CCC[C@@H](c2nc(-c3ccc(C(=O)Nc4ccccn4)cc3)c3c(N)nccn23)C1` [Example 57, 4-(8-amino-3-((R)-1-((S)-2-methoxypropanoyl)piperidin-3-yl)imidazo[1,5-a]pyrazin-1-yl)-N-(pyridin-2-yl)benzamide] was 10 to 100 nM; that for `Nc1nccn2c([C@@H]3CCCN(C(=O)C4(O)CC4)C3)nc(-c3ccc(C(=O)Nc4ccccn4)cc3)c12` [Example 94, (R)-4-(8-amino-3-(1-(1-hydroxycyclopropanecarbonyl)piperidin-3-yl)imidazo[1,5-a]pyrazin-1-yl)-N-(pyridin-2-yl)benzamide] was 10 to 100 nM.

Still in this experiment, the particulars now being: read-out: EC50 Btk activity values - Assay Method A; IMAP-FP, 60 min pre-incubation, 5 μM ATP; class 100-1000 is given as ≧100 nM-<1 μM.
`CONC(=O)C1CCCN(c2nc(-c3ccc(C(=O)Nc4cc(C5CC5)ccn4)cc3)c3c(N)nccn23)C1` (stereo not drawn) [Example 244, 1-(8-amino-1-(4-(4-cyclopropylpyridin-2-ylcarbamoyl)phenyl)imidazo[1,5-a]pyrazin-3-yl)-N-methoxypiperidine-3-carboxamide, TFA salt]: the EC50 is below 10 nM. Still for that read-out and setting: the value for `CSCCC(=O)N1CCC[C@@H](n2nc(-c3ccc(C(=O)Nc4cc(C(F)(F)F)ccn4)cc3)c3c(N)ncnc32)C1` [Example 276, (R)-4-(4-amino-1-(1-(3-(methylthio)propanoyl)piperidin-3-yl)-1H-pyrazolo[3,4-d]pyrimidin-3-yl)-N-(4-(trifluoromethyl)pyridin-2-yl)benzamide] was below 10 nM. The same measure, in the same setting: with `CC(CO)(CO)C(=O)N1CCC[C@@H](c2nc(-c3ccc(C(=O)Nc4cc(C(F)(F)F)ccn4)cc3)c3c(N)nccn23)C1` [Example 105, (R)-4-(8-amino-3-(1-(3-hydroxy-2-(hydroxymethyl)-2-methylpropanoyl)piperidin-3 yl)imidazo[1,5-a]pyrazin-1-yl)-N-(4-(trifluoromethyl)pyridin-2-yl)benzamide] the figure was below 10 nM.

For `Nc1nccn2c([C@@H]3CCC[C@H](NC(=O)C4CC4)C3)nc(-c3ccc(C(=O)Nc4cc(C(F)(F)F)ccn4)cc3)c12` (relative stereo) [Example 156, 4-(8-amino-3-((cis)-3-(cyclopropanecarboxamido)cyclohexyl)imidazo[1,5-a]pyrazin-1-yl)-N-(4-(trifluoromethyl)pyridin-2-yl)benzamide], the EC50 is below 10 nM. As for `Nc1nccn2c([C@@H]3CCCN(C(=O)[C@H](O)CO)C3)nc(-c3ccc(C(=O)Nc4cc(C5CC5)ccn4)cc3)c12` [Example 289, 4-(8-amino-3-((R)-1-((R)-2,3-dihydroxypropanoyl)piperidin-3-yl)imidazo[1,5-a]pyrazin-1-yl)-N-(4-cyclopropylpyridin-2-yl)benzamide], the EC50 was below 10 nM. Still for that read-out and setting: with `Nc1nccn2c([C@@H]3CCC[C@@H](NC(=O)C4CCC4)C3)nc(-c3ccc(C(=O)Nc4cc(C(F)(F)F)ccn4)cc3)c12` (relative stereo) [Example 171, 4-(8-amino-3-((trans)-3-(cyclobutanecarboxamido)cyclohexyl)imidazo[1,5-a]pyrazin-1-yl)-N-(4-(trifluoromethyl)pyridin-2-yl)benzamide] the figure was below 10 nM; with `CC(C)C(=O)N1CCC[C@@H](c2nc(-c3ccc(C(=O)Nc4cc(C#N)ccn4)cc3)c3c(N)nccn23)C1` [Example 100, (R)-4-(8-amino-3-(1-isobutyrylpiperidin-3 yl)imidazo[1,5-a]pyrazin-1-yl)-N-(4-cyanopyridin-2-yl)benzamide], below 10 nM. For the compound `Nc1nccn2c([C@@H]3CCCN(C(=O)C4CC(F)(F)C4)C3)nc(-c3ccc(C(=O)Nc4cc(C5CC5)ccn4)cc3)c12` [Example 109, (R)-4-(8-amino-3-(1-(3,3-difluorocyclobutanecarbonyl)piperidin-3-yl)imidazo[1,5-a]pyrazin-1-yl)-N-(4-cyclopropylpyridin-2-yl)benzamide], the EC50 is below 10 nM. On the same count and under the same terms, the value for `CC1(C(=O)N2CCC[C@@H](c3nc(-c4ccc(C(=O)Nc5cc(C(F)(F)F)ccn5)cc4)c4c(N)ncc(C(=O)O)n34)C2)COC1` [Example 300, (R)-8-amino-3-(1-(3-methyloxetane-3-carbonyl)piperidin-3-yl)-1-(4-(4-(trifluoromethyl)pyridin-2-ylcarbamoyl)phenyl)imidazo[1,5-a]pyrazine-5-carboxylic acid] was below 10 nM. On to `CCC(=O)N1CCC[C@@H](n2nc(-c3ccc(C(=O)Nc4cc(C(F)(F)F)ccn4)cc3)c3c(N)ncnc32)C1` [Example 271, (R)-4-(4-amino-1-(1-propionylpiperidin-3-yl)-1H-pyrazolo[3,4-d]pyrimidin-3-yl)-N-(4-(trifluoromethyl)pyridin-2-yl)benzamide], for which the EC50 was below 10 nM. Take `Nc1nccn2c(C3CCCC3)nc(-c3ccc(C(=O)Nc4cc(C(F)(F)F)ccn4)cc3)c12` [Example 43, 4-(8-amino-3-cyclopentylimidazo[1,5-a]pyrazin-1-yl)-N-(4-(trifluoromethyl)pyridin-2-yl)benzamide, TFA salt]: the EC50 was below 10 nM.

Take `N#Cc1ccnc(NC(=O)c2ccc(-c3nc(C4CCc5[nH]nc(C6CC6)c5C4)n4ccnc(N)c34)cc2)c1` (stereo not drawn) [Example 249, 4-(8-amino-3-(3-cyclopropyl-4,5,6,7-tetrahydro-1H-indazol-5-yl)imidazo[1,5-a]pyrazin-1-yl)-N-(4-cyanopyridin-2-yl)benzamide, TFA salt]: the EC50 is below 10 nM. Same read-out and setting: the value for `CCC(=O)C(=O)N1C[C@H](c2nc(-c3ccc(C(=O)Nc4cc(C(F)(F)F)ccn4)cc3)c3c(N)nccn23)CC[C@@H]1C` (relative stereo) [Example 200, 4-(8-amino-3-((cis)-6-methyl-1-(2-oxobutanoyl)piperidin-3-yl)imidazo[1,5-a]pyrazin-1-yl)-N-(4-(trifluoromethyl)-pyridin-2-yl)benzamide, TFA salt] was below 10 nM.

As to `C[C@H]1CC[C@@H](c2nc(-c3ccc(C(=O)Nc4ccccn4)cc3)c3c(N)nccn23)CN1C(=O)C1CC(F)(F)C1` (relative stereo) [Example 203, 4-(8-amino-3-((cis)-1-(3,3-difluorocyclobutanecarbonyl)-6-methylpiperidin-3-yl)imidazo[1,5-a]pyrazin-1-yl)-N-(pyridin-2-yl)benzamide, TFA salt], the half-maximal effective concentration (EC50) was below 10 nM.
